# Like-named read-outs stand apart in the source and are kept apart here.
# What was measured:
# zebrafish larvae = experiment: Larval zebrafish notochord ossification model (alizarin red); assay type: in vivo, Danio rerio; settings: 15 μM, 24-h pulse 7-8 dpf, stained at 9 dpf, vs DMSO or inert analogs
# Source text: DIPQUO Promotes and Accelerates Bone Mineralization In Vivo To address whether the observed effects of DIPQUO on osteoblast differentiation and maturation could extend to an in vivo bone model, we utilized the zebrafish, Danio rerio. First, zebrafish were used as a model system to examine developmental ossification via direct vertebral specification through conversion of the notochord sheath (Inohaya et al., 2007; Laue et al., 2008). During zebrafish larval stages, the extent and pattern of ossification observable at discrete developmental time points are susceptible to perturbation by cytokines or genetic modulation. The contribution of extrinsic factors to notochord ossification and patterning can be measured by alizarin red staining in a manner analogous to its application in gauging osteoblast maturation in cultured cells.
# Animals studies were performed according to protocols approved by the WCMC IACUC. Wildtype (AB/TU hybrid) zebrafish were maintained at 28.5° C. Larval fish were treated from 7 dpf to 8 dpf in tank water with DMSO or with a 24-hour pulse of 15 μM DIPQUO or inert analog BT344 or BT345, and were fixed at 9 dpf in 4% paraformaldehyde overnight rocking at 4° C. Fixed larvae were washed in PBS-0.1% Tween-20 (PBST), followed by 50% ethanol/50% PBST. […] Images were acquired on a Zeiss LSM 800 confocal microscope and Sp7^+/col10a1^+ cells quantified using ImageJ.
# [1] = tested on: alkaline phosphatase (ALP); experiment: cells; settings: Mus musculus; for activation at 10 µM: C2C12, 96 h
# C2C12 cells = experiment: C2C12 culture morphology and survival under treatment; assay type: cell-based, mouse; parameters: effect of continued treatment on C2C12 culture: dose or concentration left out as unconfirmed
# p38 MAPK = experiment: Western blotting of p38 MAPK phosphorylation in C2C12 cells; assay type: cell-based, mouse
# Protocol: Whole cell extracts were collected from C2C12 or BRITER cells in complete lysis buffer (20 mM Tris, 150 mM NaCl, 50 mM NaF, 1% NP40 substitute, HALT protease inhibitor cocktail (ThermoScientific). Proteins were resolved by electrophoresis on pre-cast 10% NuPage Bis-Tris gels (Invitrogen) and transferred to PVDF membranes (Bio-Rad). Membranes were blocked in 5% BSA-TBS-0.5% Tween-20 for 15 minutes, then incubated at 4° overnight with primary antibodies. Antibodies used were: rabbit anti-phospho-p38 MAPK (cat. no. 9211), anti-p38 MAPK XP (8690), anti-phospho-SMAD1/5 (9516), anti-SMAD1 XP (6944), anti-phospho-SMAD2/3 (8828), anti-SMAD2/3 XP (8685), anti-phospho-JNK (4668), anti-SAPK/JNK (9252), anti-phospho-Akt XP (4060), pan anti-Akt (4691), anti-phospho ERK p42/p44 (4377), anti-ERK p42/p44 (9102), anti-phospho-MKK3/6 (12280), anti-MKK3 (8535), anti-phospho-TAK1 (4531), anti-TAK1 (5206), anti-HA (3274), and anti-FLAG (14793); all from Cell Signaling); and mouse anti-p38α (cat. no. 33-1300), anti-p38β (33-8700; both ThermoFisher) and anti-β-actin (Sigma A1978). Proteins were visualized with HRP-conjugated secondary antibodies (Bio-Rad) with WestPico (ThermoFisher) or Immobilon (Millipore) chemiluminescence reagents. Images were obtained and analyzed for relative densitometric relationships on a LI-COR C-DiGit scanner using Image Studio software.
# [2] = tested on: alkaline phosphatase (ALP)
smiles,measurement,setting,value
"Cc1cc(C)c2[nH]c(=O)c(-c3[nH]cnc3-c3ccccc3)cc2c1 [RU-0226606, 6,8-dimethyl-3-(4-phenyl-1H-imidazol-5-yl)quinolin-2(1H)-one]",mineralization of vertebral primordia (alizarin red),zebrafish larvae,accelerate and accentuate mineralization of incipient vertebral primordia
same,EC50,[1]; C2C12,9.3 µM
same,activation at 10 µM,[1],100%
same,activation at 10 µM,[1]; read-out: NPA Score Threshold ≥ 5.0 (normalized percent activation),8.78%
same,EC50,"[1]; C2C12, read-out: Measured EC50",8.6 µM
same,EC50,"[1]; C2C12, read-out: half maximal effective concentration in C2C12 cells",6.27 µM
same,cellular morphology,C2C12 cells; C2C12,rapid rearrangement of cellular architecture from fibroblast-like to a cuboidal phenotype
same,effect of continued treatment on C2C12 culture,"C2C12 cells; continued treatment, partially rescued by IGF-1",attrition of the C2C12 culture
same,p38 MAPK signaling (phosphorylation),"p38 MAPK; C2C12, western blotting",selectively activated p38 MAPK signaling
same,concentration at which effects on p38 MAPK and JNK pathway activation overlap,"p38 MAPK; dose-response, western blotting, 6-8 hours of treatment",5 to 10 µM
same,RFU Score (10 μM),"[2]; 154-analog library, 10 μM, C2C12, duplicate",3104
same,Fluo. Z Score,"[2]; SAR of library and proprietary analogs, AttoPhos assay, C2C12",34.56 ± 1.80
same,RFU Score Threshold ≥ 800,"[2]; primary screen, 10 μM, C2C12, 4 days, Ex 450/Em 580 nm, rank in brackets not taken",4000 (1)
same,Fluorescence Z Score Threshold ≥ 10,"[2]; primary screen, 10 μM, C2C12, 4 days, Z score on DMSO control wells",94.38 (1)
